Measured values taken from US20150224169A1, “COMPOUNDS AND METHODS FOR SELECTIVELY TARGETING CANCER STEM CELLS” (McMaster University, priority 2012, published 2015).
Like-named read-outs stand apart in the source and are kept apart here.

Columns and labels:
[1] = system: lineage-depleted human umbilical cord blood cells; experiment: Methylcellulose assay, CFU formation; assay type: cell-based; conditions: for Normal hematopoietic progenitor/stem cell proliferation activity (CFU-forming potential of cord blood cells): 0.1 μM, treated one day, 14 days in methylcellulose
Source text: (§1) Methylcellulose assays provide a functional and quantitative measure of hematopoietic progenitor/stem cell proliferation/clonogenic potential based on the formation of colony-forming units (CFUs) in vitro. Hematopoietic progenitor/stem cells from lineage-depleted human umbilical cord blood are capable of proliferation and differentiation to all blood lineages. AML blast cells from leukemia patients are myeloid progenitor cells blocked in differentiation that are sustained by a self-renewing leukemic stem cell(s). In this experiment, lineage-depleted cord blood cells and AML samples were each treated with Nystatin for one day and then cultured in methylcellulose for 14 days after which the numbers of CFUs were determined.
(§2) Cord blood and AML patient cells were seeded in 96-well plates at 500 cells and 25000 cells respectively in 50 μL medium containing StemSpan™ (Stemcell Technologies), 200 ng/mL stem cell factor (SCF, R&D Systems), 200 ng/mL Flt-3 (R&D Systems) and 40 ng/mL thrombopoietin (TPO, Stemcell Technologies). Then, 50 μL StemSpan containing 0.2 μM, 2 μM or 20 μM compounds was added to each well containing the cells. The cells were incubated for 24 hours at 37° C., after which the compound medium was removed from the wells and replaced with 50 μL medium containing StemSpan, 100 ng/mL SCF, 100 ng/mL Flt-3 and 20 ng/mL TPO. The cells from each well were mixed with 500 μL Methocult™ (Stemcell Technologies, H4434), and seeded into 12-well plates. The samples were imaged and scored after 14 days of incubation at 37° C.

AML patient cells = assay type: cell-based, human; conditions: for Ability of AML cells to form CFUs / Selectivity ratio of total CFUs from cord blood cells versus blast CFUs from AML samples: 0.1 μM; for Ability of AML cells to form CFUs / CFU forming potential of AML cells: treated one day, 14 days in methylcellulose; for Selectivity ratio of total CFUs from cord blood cells versus blast CFUs from AML samples: normalized to 0.1% DMSO control, ratio greater than 1 = selective for AML
Source text: as §1, §2

[2] = system: variant neoplastic stem cells (v1O4) relative to normal stem cells (H9); experiment: Selective-activity dose-response screening assay (cell counts, v1O4 versus H9); assay type: cell-based, human; conditions: dose-response curves FIG. 3B
Method: Briefly, variant neoplastic stem cells (v1O4) cells were seeded into Matrigel-coated 96 well plates (5000 cells/well) containing mouse embryonic fibroblast conditioned media (MEFCM) supplemented with 8 ng/mL bFGF, and treated for 72 hours with compounds dissolved in DMSO. The final concentration of each compound used in treatment was either 10 μM or 1 μM (n=3). Control wells were treated with 0.1% DMSO (low control) or 100 ng/ml BMP4 (high control to induce LOP). At the end of 72 hours, cells were fixed, stained with Hoechst and imaged by automated microscopy. GFP intensity and Hoechst signal were quantified as measures of LOP and cell count, respectively, and compounds with a Z-score of more than 3 standard deviations from the mean for reduced cell count and LOP were chosen as hits.
In the second stage also shown in FIG. 1, 8- or 10-point dilutions for each compound were tested on variant neoplastic stem cells (v1O4) and normal stem cells (H9 cells) cells to generate dose-response curves. […] Dose response data were fit with a 4-parameter Hill equation to derive EC50, slopes, min and max values using IDBS ActivityBase software. The EC50 values were then used to calculate a selective-activity potency ratio (H9 EC50/v1O4 EC50).

[3] = system: variant neoplastic stem cells; conditions: Sachlos et al., 2012; cited from earlier work
[4] = higher concentrations (above 0.1 μM)

Compound	Normal hematopoietic progenitor/stem cell proliferation activity (CFU-forming potential of cord blood cells) [1]	Ability of AML cells to form CFUs (AML patient cells)	Selectivity ratio of total CFUs from cord blood cells versus blast CFUs from AML samples (AML patient cells)	Selectivity for cancer stem cells based on a single 10 μM concentration point [2]	also measured
Nc1ccn([C@@H]2O[C@H](CO)[C@@H](O)[C@@H]2O)c(=O)n1 [AraC, cytarabine]	also affected the CFU-forming potential of cord blood cells	reduced the ability of AML samples to form CFUs	no statistically significant difference		Toxicity to cord blood cells in methylcellulose assay [1, 4]: toxic; Toxicity to AML cells in methylcellulose assay (AML patient cells; [4]): toxic
Nc1nc(O)c2[nH]nnc2n1 [Azaguanine-8]				would have not have been considered selective	
C[C@@H]1[C@H](O)[C@@H](C)/C=C/C=C/CC/C=C/C=C/C=C/C=C/C(O[C@H]2O[C@H](C)[C@@H](O)[C@H](N)[C@@H]2O)CC2O[C@](O)(CC(O)C(O)CCC(O)CC(O)CC(O)CC(=O)O[C@H]1C)CC(O)C2C(=O)O (some centres unmarked) [Nystatin]	little effect	reduced the ability of AML cells to form CFUs	1.5		CFU forming potential of AML cells (AML patient cells; 1 μM): no effect; CFU forming potential of AML cells (AML patient cells; 10 μM): no effect
CCCCc1ccc2[nH]c(NC(=O)OC)nc2c1 [Parbendazole]				would have not have been considered selective	
CS(=O)(=O)O.Cn1cc(C2=C(c3cn(CCCSC(=N)N)c4ccccc34)C(=O)NC2=O)c2ccccc21 [Ro 31-8220 mesylate]				would have not have been considered selective	
CSc1ccc2c(c1)N(CCC1CCCCN1C)c1ccccc1S2 (centres unmarked) [Thioridazine]					Action on variant neoplastic stem cells [3]: inducing differentiation through a loss of pluripotency
